Data from patent US20150283137A1, “6-oxo-1,6-dihydro-pyridazine derivative for the use for the treatment of hepatocellular carcinoma (HCC)” (MERCK PATENT GMBH, priority 2012, published 2015).
“Also recorded” adds a separate entry of the source.

Experiments:
[1] = test system: MHCC97H tumor fragments; test: Orthotopic MHCC97H tumor model; conditions: 100 mg/kg orally
Description: Method: In male BalB/c nude mice (7-8 week old) MHCC97H tumor fragments (2-3 mm^3) where orthotopically implanted into the left lobe of the liver. After 1 week of intrahepatic implantation animals were divided into treatment groups (ten animals in one group). Respective groups were administered orally with 3-(1-{3-[5-(1-methyl-piperidin-4-ylmethoxy)-pyrimidin-2-yl]-benzyl}-6-oxo-1,6-dihydro-pyridazin-3-yl)-benzonitrile hydrochloride hydrate at 100 mg/kg/5 days on and 2 days off for 5 weeks. At the end of treatment, tumor size and tumor weight were measured, plasma AFP levels and lung metastases analyzed.

[2] = test system: human primary HCC explants
Description: Method: Male BalB/c nude mice (6-8 week old) where subcutaneously transplanted with a primary HCC tumor fragment. Animals were divided into treatment groups (12 animals in one group) after the tumors were established. Respective groups were administered orally with the 3-(1-{3-[5-(1-methyl-piperidin-4-ylmethoxy)-pyrimidin-2-yl]-benzyl}-6-oxo-1,6-dihydro-pyridazin-3-yl)-benzonitrile hydrochloride hydrate at 100 mg/kg for 5 out of 7 days.

[3] = test system: human MHCC97H liver tumor cells; test: Subcutaneous MHCC97H tumor model; assay type: in vivo, mice; conditions: for T/C ratio: 5 days on and 2 days on; for anti-tumor activity (in words): established fast growing subcutaneous MHCC97H tumors
Description: Method: Male BalB/c nude mice (6-8 week old) where subcutaneously injected with human MHCC97H liver tumor cells and were divided into treatment groups (ten animals in one group) after the tumors were established (ca. 500 mm^3). Respective groups were administered orally with the 3-(1-{3-[5-(1-methyl-piperidin-4-ylmethoxy)-pyrimidin-2-yl]-benzyl}-6-oxo-1,6-dihydro-pyridazin-3-yl)-benzonitrile hydrochloride hydrate at different doses (10, 30 and 100 mg/kg) for 5 days on and […] or daily with sorafenib (50 mg/kg).

SMILES	tolerability ([1]; 5 days on and 2 days off for 5 weeks)	anti-tumor activity on primary tumor (in words) ([1]; 5 days on and 2 days off for 5 weeks, end of treatment at day 35, hydrochloride hydrate)	lung metastases ([1]; end of treatment)	AFP levels in plasma ([1]; end of treatment, hydrochloride hydrate)	body weight ([1]; followed throughout the study)	tolerability (body weight) ([2]; all mice)	anti-tumor activity compared with sorafenib monotherapy ([2]; models LIM801 and LIM612 (strong signs of c-Met signaling))	further activity in primary explants (in words) ([2]; nine primary explants, besides CR and SD)	complete responses (CR) ([2]; nine subcutaneous established primary explants, 100 mg/kg 5 out of 7 days)	number of models with significantly inhibited growth ([2]; out of 9 models, 100 mg/kg/5 out of 7 days)	tumor growth delay (TGD, time to reach a tumor volume of 1000 mm^3) ([3]; 10 mg/kg orally)	T/C ratio ([3]; 10 mg/kg orally, end of treatment, tumors ca. 500 mm^3 at start)	tumor growth delay (TGD, time to reach a tumor volume of 1000 mm^3) ([3]; 30 mg/kg orally)	T/C ratio ([3]; 30 mg/kg orally, end of treatment)	tumor growth delay (TGD, time to reach a tumor volume of 1000 mm^3) ([3]; 100 mg/kg orally)	T/C ratio ([3]; 100 mg/kg orally, end of treatment)	anti-tumor activity (in words) [3]	number of models with anti-tumor activity ([2]; out of 9 models, sorafenib 50 mg/kg/5 out of 7 days)	T/C value ([3]; sorafenib 50 mg/kg orally daily, end of treatment)
CN1CCC(COc2cnc(-c3cccc(Cn4nc(-c5cccc(C#N)c5)ccc4=O)c3)nc2)CC1.Cl.O [3-(1-{3-[5-(1-methyl-piperidin-4-ylmethoxy)-pyrimidin-2-yl]-benzyl}-6-oxo-1,6-dihydro-pyridazin-3-yl)-benzonitrile hydrochloride hydrate]	well tolerated	complete regression in all mice; also recorded: primary tumor regression (p<0.001)	reduction lung metastases (p<0.01)	no AFP was measurable; also recorded: significantly reduced (p<0.001)	no body weight loss could be detected	well tolerated in all mice	better anti-tumor activity than sorafenib monotherapy	marginal activity in one additional model	1/9	4	24 days	−57%	53 days	−93%	> 53 days	−93%	completely inhibited growth and induced regressions		
CNC(=O)c1cc(Oc2ccc(NC(=O)Nc3ccc(Cl)c(C(F)(F)F)c3)cc2)ccn1 [sorafenib, reference compound]																	marginal anti tumor activity with no tumor regressions	7	27%
